Data published in ChEMBL document CHEMBL1201862, “PubChem BioAssay data set” (2004).
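96-well plates; 48 h exposure; 5 concentrations. Endpoints by linear interpolation between flanking doses. Not reached: highest tested concentration assigned. The concentration for 50% growth inhibition is given as GI50.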 The source made the active and inactive calls. No stated cut-off is given here; in the data, active = GI50 up to about 1.1 µM and inactive = higher.

Tests used:
Test in all cases: NCI anticancer screen, dose series, 48 h
CCRF-CEM = system: CCRF-CEM
DU-145 = system: DU-145
HCT-15 = system: HCT-15
HOP-92 = system: HOP-92
Hs-578T = system: Hs-578T
MCF7 = system: MCF7
MDA-MB-231 = system: MDA-MB-231
MDA-MB-435 = system: MDA-MB-435
MDA-N = system: MDA-N
NCI/ADR-RES = system: NCI/ADR-RES
PC-3 = system: PC-3
T47D = system: T47D
786-0 = system: 786-0
HOP-62 = system: HOP-62
Malme-3M = system: Malme-3M
NCI-H522 = system: NCI-H522
RPMI-8226 = system: RPMI-8226
UACC-62 = system: UACC-62

SMILES | GI50 (CCRF-CEM) | GI50 (DU-145) | GI50 (HCT-15) [µM] | GI50 (HOP-92) | GI50 (Hs-578T) | GI50 (MCF7) | GI50 (MDA-MB-231) | GI50 (MDA-MB-435) | GI50 (MDA-N) | GI50 (NCI/ADR-RES) | GI50 (PC-3) | GI50 (T47D) | GI50 (786-0) | GI50 (HOP-62) | GI50 (Malme-3M) | GI50 (NCI-H522) | GI50 (RPMI-8226) | GI50 (UACC-62)
CCOC(O)C(F)(F)F (stereo not drawn) | > 100 µM (inactive) | > 100 µM (inactive) | > 100 | > 100 µM (inactive) | > 100 µM (inactive) | > 100 µM (inactive) | > 100 µM (inactive) | > 100 µM (inactive) | > 100 µM (inactive) | > 100 µM (inactive) | > 100 µM (inactive) | > 100 µM (inactive) | – | – | – | – | – | –
O=C1c2cc3c(cc2CC12Cc1ccc4c(c1C2=O)CCC4)CCCC3 (stereo not drawn) | > 100 µM (inactive) | > 100 µM (inactive) | > 100 | > 100 µM (inactive) | > 100 µM (inactive) | > 100 µM (inactive) | > 100 µM (inactive) | 76.4 µM (inactive) | > 100 µM (inactive) | > 100 µM (inactive) | > 100 µM (inactive) | > 100 µM (inactive) | > 100 µM (inactive) | > 100 µM (inactive) | 60 µM (inactive) | > 100 µM (inactive) | > 100 µM (inactive) | –
O=C1CC2(CCC(O)(c3ccc4ccccc4c3)C(C(=O)c3ccc4ccccc4c3)C2)C(=O)c2ccccc2N1 (stereo not drawn) | > 100 µM (inactive) | > 100 µM (inactive) | > 10 | 5.69 µM (inactive) | > 100 µM (inactive) | 7.59 µM (inactive) | > 100 µM (inactive) | > 100 µM (inactive) | – | > 100 µM (inactive) | 4.27 µM (inactive) | 2.13 µM (inactive) | – | > 100 µM (inactive) | > 100 µM (inactive) | – | – | > 100 µM (inactive)
CCOC(=O)c1csc(NC(=O)CCN2CCN(C)CC2)n1 | 54.8 µM (inactive) | > 100 µM (inactive) | > 100 | > 100 µM (inactive) | 64.6 µM (inactive) | 89.3 µM (inactive) | > 100 µM (inactive) | > 100 µM (inactive) | > 100 µM (inactive) | > 100 µM (inactive) | > 100 µM (inactive) | > 100 µM (inactive) | – | > 100 µM (inactive) | – | – | 55.3 µM (inactive) | > 100 µM (inactive)
c1ccc2c(c1)c1c(n2CCOCCCN2CCCCC2)CCCC1 | – | 44.7 µM (inactive) | 14.2 | 22.7 µM (inactive) | 20.1 µM (inactive) | 16.1 µM (inactive) | 20.5 µM (inactive) | 18.1 µM (inactive) | 21.8 µM (inactive) | 17.9 µM (inactive) | 13.1 µM (inactive) | 17.2 µM (inactive) | – | 16.3 µM (inactive) | 18 µM (inactive) | 15.3 µM (inactive) | 31.1 µM (inactive) | –
C[N+](C)(C)/C=N\c1cccc2c1CCCC2 | 50.7 µM (inactive) | > 100 µM (inactive) | > 100 | 17.7 µM (inactive) | > 100 µM (inactive) | > 100 µM (inactive) | > 100 µM (inactive) | 90.8 µM (inactive) | > 100 µM (inactive) | > 100 µM (inactive) | 39.8 µM (inactive) | 69.3 µM (inactive) | > 100 µM (inactive) | > 100 µM (inactive) | > 100 µM (inactive) | – | 21.5 µM (inactive) | > 100 µM (inactive)
N#Cc1c(-c2ccccc2)c(CN2CCCCC2)c(=O)n2c1[nH]c1ccccc12 | 25.9 µM (inactive) | – | 32.6 | – | – | 13.2 µM (inactive) | 43.5 µM (inactive) | 41.4 µM (inactive) | 27.5 µM (inactive) | 43.2 µM (inactive) | 34.9 µM (inactive) | 40.9 µM (inactive) | 27.9 µM (inactive) | 20.7 µM (inactive) | 62.2 µM (inactive) | 24.3 µM (inactive) | – | –
